# From patent publication US10646575B2, “Heterocyclic degronimers for target protein degradation” (C4 Therapeutics, Inc., priority 2016, dated 2020)
# Target: CRBN-DDB1 (Homo sapiens (Human), UniProt Q96SW2)
# Test: CRBN-DDB1 fluorescence polarization (FP) binding assay
# Conditions: displacement of (−)-Thalidomide-Alexa Fluor or Pomalidomide-fluorescein probe; 400 nM CRBN-DDB1, 5 nM probe, 60 min, room temperature
# Description: Measuring compound ligand binding to CRBN-DDB1 was carried out using an established sensitive and quantitative in vitro fluorescence polarization (FP) based binding assay. […] Compounds were dispensed from serially diluted DMSO stock into black 384-well compatible fluorescence polarization plates using an Echo acoustic dispenser. Compound binding to CRBN-DDB1 was measured by displacement of either a (−)-Thalidomide-Alexa Fluor® or Pomalidomide-fluorescein conjugated probe dye. […] Matching control wells excluding CRBN-DDB1 were used to correct for background fluorescence. Plates were read on an Envision plate reader with appropriate FP filter sets. The corrected S (perpendicular) and P (parallel) values were used to calculate fluorescence polarization (FP) with the following equation: FP=1000*(S−G*P)/(S+G*P).
# Chain of CRBN-DDB1 (Q96SW2 whole entry): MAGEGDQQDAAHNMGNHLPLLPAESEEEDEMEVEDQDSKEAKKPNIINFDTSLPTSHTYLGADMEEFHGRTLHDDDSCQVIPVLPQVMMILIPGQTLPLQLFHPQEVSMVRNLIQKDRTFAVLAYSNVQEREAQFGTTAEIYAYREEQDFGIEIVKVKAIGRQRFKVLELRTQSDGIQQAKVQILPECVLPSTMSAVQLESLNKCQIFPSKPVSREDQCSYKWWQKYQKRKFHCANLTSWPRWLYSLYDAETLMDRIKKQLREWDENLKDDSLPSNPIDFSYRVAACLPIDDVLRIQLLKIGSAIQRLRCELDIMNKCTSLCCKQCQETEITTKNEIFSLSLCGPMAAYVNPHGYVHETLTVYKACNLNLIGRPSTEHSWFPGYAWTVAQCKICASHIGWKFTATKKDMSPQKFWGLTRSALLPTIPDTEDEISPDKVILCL
# Chain of CRBN-DDB1 (Q16531 whole entry partner): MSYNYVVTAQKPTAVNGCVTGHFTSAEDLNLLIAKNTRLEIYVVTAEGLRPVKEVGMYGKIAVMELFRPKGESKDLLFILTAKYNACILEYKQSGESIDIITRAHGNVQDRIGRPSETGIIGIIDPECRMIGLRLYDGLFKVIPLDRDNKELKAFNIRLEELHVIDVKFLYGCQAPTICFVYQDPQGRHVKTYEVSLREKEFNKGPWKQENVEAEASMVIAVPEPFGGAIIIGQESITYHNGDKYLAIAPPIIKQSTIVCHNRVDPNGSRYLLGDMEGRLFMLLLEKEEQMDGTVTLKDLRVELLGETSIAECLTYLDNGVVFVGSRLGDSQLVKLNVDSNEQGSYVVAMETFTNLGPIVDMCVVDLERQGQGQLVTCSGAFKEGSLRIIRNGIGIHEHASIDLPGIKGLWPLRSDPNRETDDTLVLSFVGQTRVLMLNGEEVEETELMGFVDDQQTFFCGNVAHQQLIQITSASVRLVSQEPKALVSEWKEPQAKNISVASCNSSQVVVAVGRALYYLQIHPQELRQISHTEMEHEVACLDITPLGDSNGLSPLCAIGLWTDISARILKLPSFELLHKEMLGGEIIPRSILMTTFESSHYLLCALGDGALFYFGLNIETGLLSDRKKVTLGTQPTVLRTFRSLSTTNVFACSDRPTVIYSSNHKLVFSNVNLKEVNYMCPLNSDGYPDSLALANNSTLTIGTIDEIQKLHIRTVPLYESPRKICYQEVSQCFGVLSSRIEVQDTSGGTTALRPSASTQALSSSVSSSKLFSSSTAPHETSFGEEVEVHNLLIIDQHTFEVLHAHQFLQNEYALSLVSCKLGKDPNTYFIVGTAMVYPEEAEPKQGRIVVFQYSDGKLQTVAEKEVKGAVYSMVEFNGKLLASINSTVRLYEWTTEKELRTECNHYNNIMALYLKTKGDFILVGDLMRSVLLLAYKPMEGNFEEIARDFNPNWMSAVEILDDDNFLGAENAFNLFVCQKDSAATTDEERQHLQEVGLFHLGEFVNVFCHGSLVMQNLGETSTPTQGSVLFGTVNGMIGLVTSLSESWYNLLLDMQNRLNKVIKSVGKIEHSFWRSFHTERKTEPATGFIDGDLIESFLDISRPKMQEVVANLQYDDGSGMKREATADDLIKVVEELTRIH
smiles,measurement,value
"O=C1NC(=O)C2(CC2)CC1N1C(=O)c2ccccc2C1=O (stereo not shown) [Compound 3, 2-(4,6-dioxo-5-azaspiro[2.5]octan-7-yl)isoindoline-1,3-dione]",Kd,1 to 1000 µM
